Measurements taken from patent US20110053770A1, “SUBSTITUTED AMINOTHIAZOLES AND THEIR USE AS FUNGICIDES” (BAYER CROPSCIENCE AG, priority 2009, published 2011).

Assay: logP by HPLC on reversed-phase columns (C 18), EEC directive 79/831 Annex V.A8
Format: physicochemical
Settings: for log P (***): LC-MS, neutral range, pH 7.8, 0.001 molar aqueous ammonium bicarbonate and acetonitrile; for log P (*): acidic range, pH 2.3, 0.1% aqueous phosphoric acid and acetonitrile
Method: Calibration was carried out using unbranched alkan-2-ones (having from 3 to 16 carbon atoms) with known logP values (the logP values were determined by the retention times using linear interpolation between two successive alkanones).

| log P (***) | log P (*) | SMILES |
| --- | --- | --- |
| 3.96 | 2.02 | Fc1cc(F)c(Oc2ccccc2-c2csc(N=C3CCCCN3)n2)c(F)c1 [compound 82, N-[(2E/Z)-piperidin-2-ylidene]-4-[2-(2,4,6-trifluorophenoxy)phenyl]-1,3-thiazole-2-amine] |
| 3.98 | 1.94 | Fc1ccc(F)c(Oc2ccccc2-c2csc(N=C3CCCCN3)n2)c1 [compound 80, 4-[2-(2,5-difluorophenoxy)phenyl]-N-[(2E/Z)-piperidin-2-ylidene]-1,3-thiazole-2-amine] |
